How the values were obtained:
blackgrass = test: Test C postemergence herbicide test; type: in vivo, Alopecurus myosuroides; conditions: for Blackgrass plant response rating: 500 g ai/ha
Summary of the method: (§1)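 Postemergence sprays were applied to plants 2 to 18 cm tall (1- to 4-leaf stage); in the flooded paddy test, barnyardgrass was grown to the 2-leaf stage. After 12 to 14 days in a greenhouse, injury was visually rated against untreated controls on a 0–100 scale (100 = complete control).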

downy bromegrass = test: Test C postemergence herbicide test; type: in vivo, Bromus tectorum
Summary of the method: as §1

wild oat = test: Test C postemergence herbicide test; type: in vivo, Avenafatua
Summary of the method: as §1

soybean = test: Test C pre-/postemergence herbicide test; type: in vivo, Glycine max; conditions: for Soybean plant response rating: Preemergence
Summary of the method: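 Seeds were planted and sprayed preemergence with test chemicals in a non-phytotoxic solvent mixture containing surfactant; postemergence treatments went onto plants 2 to 18 cm tall (1- to 4-leaf stage). After 12 to 14 days in a greenhouse, injury was rated visually against untreated controls on a 0–100 scale.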

Italian ryegrass = test: Test C postemergence herbicide test; type: in vivo, Lolium multiflorum
Summary of the method: as §1

[1] = Postemergence, 250 g ai/ha, scale 0 to 100, 0 no effect, 100 complete control
[2] = postemergence, 125 g ai/ha, scale 0 to 100
[3] = postemergence, 62 g ai/ha, scale 0 to 100
[4] = Postemergence, 500 g ai/ha, scale 0 to 100
[5] = 62 g ai/ha, preemergence, scale 0 to 100
[6] = 250 g ai/ha, scale 0-100, preemergence
[7] = 500 g ai/ha, scale 0 to 100 (0 no effect, 100 complete control), visual, 12 to 14 days, preemergence
[8] = Postemergence, 500 g ai/ha, scale 0 to 100, 0 no effect, 100 complete control
[9] = 125 g ai/ha, scale 0 (no effect) to 100 (complete control), visual, 12 to 14 days, preemergence
[10] = 500 g ai/ha, scale 0 to 100, 0 no effect, 100 complete control
[11] = postemergence, 31 g ai/ha, scale 0 to 100

SMILES	Blackgrass plant response rating (blackgrass; Postemergence, scale 0 to 100)	Plant response rating, Blackgrass (blackgrass; [1])	Plant response rating, Blackgrass (blackgrass; [2])	Plant response rating, Blackgrass (blackgrass; [3])	Plant response rating, Bromegrass, Downy (downy bromegrass; [1])	Plant response rating, Bromegrass, Downy (downy bromegrass; [2])	Plant response rating, Bromegrass, Downy (downy bromegrass; [3])	Plant response rating, Oat, Wild (wild oat; [1])	Plant response rating, Oat, Wild (wild oat; [2])	Plant response rating, Oat, Wild (wild oat; [3])	Plant response rating, Soybean (soybean; [5])	Plant response rating, Ryegrass, Italian (Italian ryegrass; [1])	Plant response rating, Ryegrass, Italian (Italian ryegrass; [2])	Plant response rating, Ryegrass, Italian (Italian ryegrass; [3])	Plant response rating, Soybean (soybean; [9])	also measured
CCn1nc(C2(C)CC2)cc1C(=O)Nc1cc(C(=O)N2CC=CC2)ccc1F [Compound 301]	45	90	75	55	40	40	40	75	65	45	15	45	45	35	–	Bromegrass, Downy plant response rating (downy bromegrass; [4]): 40; Oat, Wild plant response rating (wild oat; [4]): 60; Plant response rating, Soybean (soybean; [6]): 20; Plant response rating, Soybean (soybean; [7]): 45; Ryegrass, Italian plant response rating (Italian ryegrass; [4]): 65
CCn1nc(C(C)(C)C)cc1C(=O)Nc1cccc(OS(=O)(=O)CC)c1 [Compound 408]	70	65	50	40	55	45	40	–	55	45	–	–	45	40	–	Plant response rating, Bromegrass, Downy (downy bromegrass; [8]): 55; Plant response rating, Oat, Wild (wild oat; [8]): 70; Plant response rating, Ryegrass, Italian (Italian ryegrass; [8]): 70
CCn1nc(C(C)(C)C)cc1C(=O)Nc1cc(OC(F)(F)F)ccc1F [Compound 338]	65	50	45	40	40	35	30	50	45	40	–	50	30	25	–	Plant response rating, Bromegrass, Downy (downy bromegrass; [8]): 45; Plant response rating, Oat, Wild (wild oat; [8]): 60; Plant response rating, Soybean (soybean; [1]): 35; Plant response rating, Soybean (soybean; [8]): 60; Plant response rating, Soybean (soybean; [2]): 30; Plant response rating, Soybean (soybean; [3]): 10; Plant response rating, Ryegrass, Italian (Italian ryegrass; [8]): 60
CCCCOc1cccc(NC(=O)c2cc(C(C)(C)C)nn2CC)c1 [Compound 137]	60	40	40	40	20	20	10	40	40	20	–	40	40	20	0	Bromegrass, Downy plant response rating (downy bromegrass; [4]): 40; Oat, Wild plant response rating (wild oat; [4]): 50; Plant response rating (0 = no effect, 100 = complete control), Soybean (soybean; 62 g ai/ha, preemergence): 0; Soybean plant response rating (soybean; [10]): 10; Ryegrass, Italian plant response rating (Italian ryegrass; [4]): 60
CCOC(=O)c1cccc(NC(=O)c2cc(C3(C)CC3)nn2CC)c1 [Compound 295]	–	65	65	45	45	45	45	50	50	50	–	65	40	40	–	Plant response rating, Blackgrass (blackgrass; [11]): 45; Plant response rating, Bromegrass, Downy (downy bromegrass; [11]): 45; Plant response rating, Soybean (soybean; [1]): 55; Plant response rating, Soybean (soybean; [2]): 50; Plant response rating, Soybean (soybean; [3]): 50
CCn1nc(C(C)(C)C)cc1C(=O)Nc1ccc(OC)c(OC)c1 [Compound 298]	–	–	–	–	–	–	–	–	–	–	0	–	–	–	–	Plant response rating, Soybean (soybean; [6]): 5; Plant response rating, Soybean (soybean; [7]): 60
CCNC(=O)c1cccc(NC(=O)c2cc(C(C)(C)C)nn2CCF)c1 [Compound 35]	–	–	–	–	–	–	–	–	–	–	–	–	–	–	0	Plant response rating, Soybean (soybean; 31 g ai/ha, preemergence, scale 0 to 100): 0; Plant response rating (0 = no effect, 100 = complete control), Soybean (soybean; 62 g ai/ha, preemergence): 0; Plant response rating, Soybean (soybean; [2]): 90; Plant response rating, Soybean (soybean; [3]): 90
CC(=O)c1cccc(NC(=O)c2cc(C(C)(C)C)nn2CCF)c1 [Compound 128]	–	–	–	–	–	–	–	–	–	–	–	–	–	–	20	Plant response rating (0 = no effect, 100 = complete control), Soybean (soybean; 62 g ai/ha, preemergence): 20
Cc1nn(C(C)(C)C)nc1C(=O)Nc1cccc(C(=S)N(C)C)c1 [Compound 419]	–	–	–	–	–	–	–	–	–	–	40	–	–	–	–	Plant response rating (0 = no effect, 100 = complete control), Soybean (soybean; 125 g ai/ha, preemergence): 85; Plant response rating, Soybean (soybean; [7]): 95
CCN(CC)C(=O)c1ccnc(NC(=O)c2cc(C(C)(C)C)nn2CC)c1 [Compound 153]	–	–	–	–	–	–	–	–	–	–	0	–	–	–	0	Soybean plant response rating (soybean; [10]): 15
CCNC(=O)c1ccc(F)c(NC(=O)c2cc(C3(C)CC3)nn2CC)c1 [Compound 300]	–	–	–	–	–	–	–	–	–	–	0	–	–	–	–	Plant response rating, Soybean (soybean; [6]): 70

Reference: patent US20060069132A1, “Azolecarboxamide herbicides” (priority 2004, published 2006)
